Results on 32 molecules are retold here after patent publication US12060333B2 (Hoffmann-La Roche Inc., priority 2021, dated 2024).

The target in one assay is SARS-CoV-2 3CLpro (Severe acute respiratory syndrome coronavirus 2, UniProt P0DTD1). Nature of the assay: biochemical. The following applies: IC50 (μM), SARS-CoV-2 3CLPro assay.
Consider `Cc1cc(C(=O)N[C@@H](CC(C)C)C(=O)NN(CCC(N)=O)C(=O)CCl)no1` [Example 29], for which the IC50 (as a rule, the concentration at which inhibition is half-maximal) was found to be 0.034 µM. On to `CC(C)C[C@H](NC(=O)c1cc2ccccc2[nH]1)C(=O)NN(CCC(N)=O)C(=O)CF` [Example 31, N-[(1S)-1-[[(3-Amino-3-axo-propyl)-(2-fluoroacetyl)amino]carbamoyl]-3-methyl-butyl]-1H-indole-2-carboxamide], for which the IC50 was 0.65 µM. In turn, `Cc1cc(C(=O)N[C@@H](CC2CC2)C(=O)NN(CCC(N)=O)C(=O)C(F)Cl)no1` (mixture of isomers) [Example 75, 5-Methyl-N-[rac-(1S)-2-[2-(3-amino-3-oxo-propyl)-2-(2-chloro-2-fluoro-acetyl)hydrazino]-1-(cyclopropylmethyl)-2-axo-ethyl]isoxazole-3-carboxamide] gave an IC50 of 0.32 µM.

The molecule `CC(C)C[C@H](NC(=O)c1cc2c(Cl)cccc2[nH]1)C(=O)NN(CCC(N)=O)C(=O)[C@@H](F)Cl` (single isomer, unassigned) [Example 53-A] displayed an IC50 of 0.014 µM.

Consider `CC(C)CC(NC(=O)c1cn2ccccc2n1)C(=O)NN(CCC(N)=O)C(=O)C(F)Cl` (racemic) [Example 95, N-[rac-(1S)-1-[[(3-amino-3-oxo-propyl)-(2-chloro-2-fluoro-acetyl)amino]carbamoyl]-3-methyl-butyl]imidazo[1,2-a]pyridine-2-carboxamide], for which the IC50 is 0.65 µM. As to `CC(C)C[C@H](NC(=O)/C=C/c1ccccc1)C(=O)NN(CCC(N)=O)C(=O)[C@@H](F)Cl` (single isomer, unassigned) [Example 86-B], the IC50 came to 0.023 µM. Same read-out and setting: then `COc1cc2cc(C(=O)N[C@@H](CC(C)C)C(=O)NN(CCC(N)=O)C(=O)C(F)Cl)[nH]c2cn1` (mixture of isomers) [Example 89, 5-methoxy-N-[rac-(1S)-1-[[(3-amino-3-axo-propyl)-(2-chloro-2-fluoro-acetyl)amino]carbamoyl]-3-methyl-butyl]-1H-pyrrolo[2,3-c]pyridine-2-carboxamide], with 0.019 µM. Turning to `CC(C)C[C@H](NC(=O)c1cc2ccccc2[nH]1)C(=O)NN(CCC(N)=O)C(=O)[C@H](F)Cl` (single isomer, unassigned) [Example 41-B], 0.034 µM corresponded to half-maximal inhibition (IC50). Same read-out and setting: next, `Cc1cc(C(=O)N[C@@H](CC2CCCCC2)C(=O)NN(CCC(N)=O)C(=O)C(F)Cl)no1` (mixture of isomers) [Example 74, 5-Methyl-N-[rac-(1S)-2-[2-(3-amino-3-oxo-propyl)-2-(2-chloro-2-fluoro-acetyl)hydrazino]-1-(cyclohexylmethyl)-2-axo-ethyl]isoxazole-3-carboxamide]: 0.028 µM. With `COc1cccc2[nH]c(C(=O)N[C@@H](CC(C)C)C(=O)NN(CCC(N)=O)C(=O)CF)cc12` [Example 30, N-[(1S)-1-[[(3-Amino-3-axo-propyl)-(2-fluoroacetyl)amino]carbamoyl]-3-methyl-butyl]-4-methoxy-1H-indole-2-carboxamide], the IC50 stood at 0.16 µM.

In turn, `CC(C)C[C@H](NC(=O)OCc1ccccc1)C(=O)NN(CCC(N)=O)C(=O)[C@@H](F)Cl` (single isomer, unassigned) [Example 17-A] had an IC50 of 1.63 µM. The same measure, in the same setting: then `CC(C)C[C@H](NC(=O)c1nc2cc(Cl)ccc2[nH]1)C(=O)NN(CCC(N)=O)C(=O)[C@H](F)Cl` (racemic) [Example 60-B, 5-chloro-N-[rac-(1S)-1-[[(3-amino-3-oxo-propyl)-[rac-(2R)-2-chloro-2-fluoro-acetyl]amino]carbamoyl]-3-methyl-butyl]-1H-benzimidazole-2-carboxamide], with 0.052 µM. `COc1cccc(NCC(=O)N[C@@H](CC(C)C)C(=O)NN(CCC(N)=O)C(=O)[C@H](F)Cl)c1` (single isomer, unassigned) [Example 83-A] gave an IC50 of 0.9 µM. For `CC(C)C[C@H](NC(=O)c1cc2ccccc2[nH]1)C(=O)NN(CC1CCNC1=O)C(=O)CCl` (mixture of isomers) [Example 51, N-[(1S)-1-[[(2-Chloroacetyl)-[(2-oxo-pyrrolidin-3-yl)methyl]amino]carbamoyl]-3-methyl-butyl]-1H-indole-2-carboxamide], 0.004 µM corresponded to half-maximal inhibition (IC50). The same measure, in the same setting: then `CC(C)C[C@H](NC(=O)c1cc2ccccc2[nH]1)C(=O)NN(CC1CCNC1=O)C(=O)CF` (stereo partly drawn) [Example 38, N-[(1S)-1-[[(2-fluoroacetyl)-[(2-oxo-pyrrolidin-3-yl)methyl]amino]carbamoyl]-3-methyl-butyl]-1H-indole-2-carboxamide], with 0.29 µM.

The same assay, now with this note: read-out: IC50 (μM), SARS-CoV-2 3CLPro assay.
As to `CCCN(NC(=O)[C@H](CC(C)C)NC(=O)OCc1ccccc1)C(=O)CCl` [Example 21, Benzyl N-[(1S)-1-[[(2-chloroacetyl)-propyl-amino]carbamoyl]-3-methyl-butyl]carbamate], the IC50 was found to be 0.39 µM. For the molecule `CC(C)C[C@H](NC(=O)/C=C/c1ccc(Cl)cc1F)C(=O)NN(CCC(N)=O)C(=O)CCl` [Example 34, 3-[(2-Chloroacetyl)-[[(2S)-2-[[(E)-3-(4-chloro-2-fluoro-phenyl)prop-2-enoyl]amino]-4-methyl-pentanoyl]amino]amino]propanamide], the IC50 amounted to 0.005 µM. The same measure, in the same setting: next, `Cc1oncc1C(=O)N[C@@H](CC(C)C)C(=O)NN(CCC(N)=O)C(=O)CCl` [Example 46, N-[(1S)-1-[[(3-Amino-3-oxo-propyl)-(2-chloroacetyl)amino]carbamoyl]-3-methyl-butyl]-5-methyl-isoxazole-4-carboxamide]: 0.07 µM; `CC(C)C[C@H](NC(=O)OCc1ccccc1)C(=O)NN(CCC(N)=O)C(=O)C(F)Cl` (stereo partly drawn) [Example 17, Benzyl N-[(1S)-1-[[(3-amino-3-oxo-propyl)-(2-chloro-2-fluoro-acetyl)amino]carbamoyl]-3-methyl-butyl]carbamate]: 0.09 µM; `CC(C)C[C@H](NC(=O)c1cc2ncccc2[nH]1)C(=O)NN(CCC(N)=O)C(=O)C(F)Cl` (stereo partly drawn) [Example 91, N-[(1S)-1-[[(3-amino-3-oxo-propyl)-(2-chloro-2-fluoro-acetyl)amino]carbamoyl]-3-methyl-butyl]-1H-pyrrolo[3,2-b]pyridine-2-carboxamide]: 0.038 µM.

On to `NC(=O)CCN(NC(=O)[C@H](CC1CCCCC1)NC(=O)c1cc2ccccc2[nH]1)C(=O)CCl` [Example 35, N-[(1S)-2-[2-(3-Amino-3-axo-propyl)-2-(2-chloroacetyl)hydrazino]-1-(cyclohexylmethyl)-2-axo-ethyl]-1H-indole-2-carboxamide], for which the IC50 stood at 0.002 µM. Same read-out and setting: then `COc1cccc2[nH]c(C(=O)N[C@@H](CC(C)C)C(=O)NN(CCC(N)=O)C(=O)C(F)Cl)cc12` (stereo partly drawn) [Example 49, 4-Methoxy-N-[(1S)-1-[[(3-amino-3-oxo-propyl)-(2-chloro-2-fluoro-acetyl)amino]carbamoyl]-3-methyl-butyl]-1H-indole-2-carboxamide], with 0.015 µM; and `CC(C)C[C@H](NC(=O)OCc1ccccc1)C(=O)NN(CCC(N)=O)C(=O)CBr` [Example 7, Benzyl N-[(1S)-1-[[(3-amino-3-oxo-propyl)-(2-bromoacetyl)amino]carbamoyl]-3-methyl-butyl]carbamate], with 0.54 µM; and `Cc1nc(C(=O)N[C@@H](CC(C)C)C(=O)NN(CCC(N)=O)C(=O)CCl)co1` [Example 45, N-[(1S)-1-[[(3-Amino-3-oxo-propyl)-(2-chloroacetyl)amino]carbamoyl]-3-methyl-butyl]-2-methyl-oxazole-4-carboxamide], with 0.046 µM. As to `CC(C)C[C@H](NC(=O)OCc1ccccc1)C(=O)NN(Cc1c[nH]cn1)C(=O)CCl` [Example 24, Benzyl N-[(1S)-1-[[(2-chloroacetyl)-(1H-imidazol-4-ylmethyl)amino]carbamoyl]-3-methyl-butyl]carbamate], the IC50 came to 0.087 µM. Consider `CNC(=O)CCN(NC(=O)[C@H](CC(C)C)N(C)C(=O)c1cc2ccccc2[nH]1)C(=O)CCl` [Example 50, N-[(1S)-1-[[(2-Chloroacetyl)-[3-(methylamino)-3-oxo-propyl]amino]carbamoyl]-3-methyl-butyl]-N-methyl-1H-indole-2-carboxamide], for which the IC50 came out at 0.074 µM. Turning to “N-[(1S)-1-[[(3-amino-3-oxo-propyl)-[(2R)-2-chloro-2-fluoro-acetyl]amino]carbamoyl]-3-methyl-butyl]-1H-pyrrolo[2,3-c]pyridine-2-carboxamide and N-[(1S)-1-[[(3-amino-3-oxo-propyl)-[(2S)-2-chloro-2-fluoro-acetyl]amino]carbamoyl]-3-methyl-butyl]-1H-pyrrolo[2,3-c]pyridine-2-carboxamide [Example 88]”, the IC50 turned out to be 0.013 µM. As for `CC(C)C[C@H](NC(=O)OCc1ccccc1)C(=O)NN(CCC(N)=O)C(=O)CCl` [Example 2, Benzyl N-[(1S)-1-[[(3-amino-3-oxo-propyl)-(2-chloroacetyl)amino]carbamoyl]-3-methyl-butyl]carbamate], the IC50 turned out to be 0.017 µM.

For the molecule `NC(=O)CCN(NC(=O)[C@H](CC1CCCCC1)NC(=O)OCc1ccccc1)C(=O)CCl` [Example 8, Benzyl N-[(1S)-2-[2-(3-amino-3-oxo-propyl)-2-(2-chloroacetyl)hydrazino]-1-(cyclohexylmethyl)-2-axo-ethyl]carbamate], the IC50 is 0.008 µM. Regarding `COc1cc2cc(C(=O)N[C@@H](CC(C)C)C(=O)NN(CCC(N)=O)C(=O)CCl)nc-2c[nH]1` [Example 47, N-[(1S)-1-[[(3-Amino-3-oxo-propyl)-(2-chloroacetyl)amino]carbamoyl]-3-methyl-butyl]-5-methoxy-6H-pyrrolo[2,3-c]pyridine-2-carboxamide], the IC50 worked out at 0.014 µM.

`CC(C)C[C@H](NC(=O)OCc1ccccc1)C(=O)NN(CC1CCNC1=O)C(=O)CCl` (stereo partly drawn) [Example 18, Benzyl N-[(1S)-1-[[(2-chloroacetyl)-[(2-oxo-pyrrolidin-3-yl)methyl]amino]carbamoyl]-3-methyl-butyl]carbamate]: the IC50 worked out at 0.017 µM. The same measure, in the same setting: next, `COc1cccc2[nH]c(C(=O)N[C@@H](CC3CCCCC3)C(=O)NN(CCC(N)=O)C(=O)[C@H](F)Cl)cc12` [Example 56-A, N-[(1S)-2-[2-(3-amino-3-oxo-propyl)-2-[(2R)-2-chloro-2-fluoro-acetyl]hydrazino]-1-(cyclohexylmethyl)-2-axo-ethyl]-4-methoxy-1H-indole-2-carboxamide]: 0.008 µM.
